Test results: the NIST ThermoML archive (doi:10.1021/je300853z)

Key:
[1] = molar heat capacity at constant pressure; xn = mol fraction of the nth substance listed; conditions: 101 kPa, Liquid, Small sample (50 mg) DSC
[2] = excess molar enthalpy (molar enthalpy of mixing); xn = mol fraction of the nth substance listed; conditions: 298.15 K, 101 kPa, Liquid, Calvet calorimetry

CCCCCCCC[n+]1ccc2ccccc2c1.N#C[S-] [2-octylisoquinolinium thiocyanate] + O
molar heat capacity at constant pressure [J/K/mol], [1]
Conditions	x1 = 0.3977	x1 = 0.5237	x1 = 0.5945	x1 = 0.7214	x1 = 0.8097	x1 = 0.8935
278.15 K	248	295	334	386	423	467
283.15 K	250	304	337	388	426	470
288.15 K	251	306	340	391	429	474
293.15 K	253	309	342	393	432	476
298.15 K	255	311	344	396	434	479
303.15 K	257	313	347	398	437	482
308.15 K	258	315	349	400	439	484
313.15 K	260	316	351	402	441	487
318.15 K	261	318	353	404	441	490
323.15 K	261	319	355	405	442	492
328.15 K	262	320	357	406	443	495
333.15 K	263	321	358	408	443	497
338.15 K	263	322	360	408	442	500

[2]
Conditions	excess molar enthalpy [kcal/mol]
x1 = 0.2433	0.0308
x1 = 0.258	0.0292
x1 = 0.2745	0.0249
x1 = 0.2933	0.0158
x1 = 0.3149	0.00142
